Patent publication US8686016B2, “Schweinfurthins and uses thereof” (The United States of America, as represented by the …, priority 2009, dated 2014)
Entries after “also recorded” stand apart in the source; their conditions may differ.

What was measured:
SNB-75 = assay: NCI60 cell line response to SA, SNB-75; format: cell-based, human; settings: SNB-75, doubling time 62.8 hours
MPNST K14553 cells = assay: XTT cell proliferation assay, K14553; format: cell-based, mouse
Experimental: Establishment of NPcis MPNST cell lines: Mice were euthanized by CO2 asphyxiation and tumors were dissected. The tumor volume was measured. The tumor was then cut in half, and ½ fixed in 4% PFA. The other half was rinsed, then cut into 24 pieces of approximately equal size. Each piece was diced with a razor blade and placed in 1 well of a 24 well plate, along with 625 μL of Triple Express (Gibco, Grand Island, N.Y., USA) and 5 μL of recombinant DNAse (Roche, Indianapolis, Ind., USA). Tumors were triturated, then incubated at 37° C. in a 5% CO2 incubator for 2-5 hours, with an additional trituration halfway through incubation time. At the end of the incubation, tumor pieces were triturated again, and suspended cells were transferred to 1.5 mL eppendorf tubes. […] Both plates were monitored for cell growth, grown up to 10 cm plates, and frozen down in 10% DMSO. […]
XTT Cell Proliferation Assay: Cells were seeded into 96-well plates at a density of 2,000 cells/well and allowed to reattach overnight. Cells were treated with SA, synthetic analogs, camptothecin (NCI Chemotherapeutics Repository, Md., USA), or DMSO control at the indicated concentrations continuously for 48 hours followed by assay in the 96-well plate for relative viable cell number using the dye […] (XTT) and a Wallac-Victor 2 plate reader (Perkin-Elmer, Waltham, Mass., USA). […]

primary astrocytes = assay: Cell morphology / actin confocal microscopy, primary astrocytes; format: cell-based, mouse; settings: 18 hours treatment
Experimental: (§1) Cell Morphology Assays and Confocal Microscopy: To assay cytoskeleton morphology, KR158 cells, mouse primary astrocytes, KR158 clones expressing the NF1-GRD constructs, K14553 cells, and A549 were seeded to cover slips and allowed to reattach overnight. Cells were treated for 18 hours with either the indicated concentrations of SA, or the vehicle control DMSO. The cover slips were fixed in 3.7% paraformaldehyde, permeablized in 0.1% Triton-X100, and stained with Alexa Fluor 488-phalloidin (Invitrogen, Carlsbad, Calif., USA) to detect actin and cells were mounted in Prolong Antifade containing DAPI (Invitrogen) to stain nuclei. The cells were imaged on a LSM510 confocal microscope (Carl Zeiss Inc., Jena, Germany). For phospho-myosin light chain 2 (MLC) detection, cells were seeded to coverslips as described above. Cells were serum starved in 0.5% FBS and SA or DMSO vehicle control for 18 hours, and then pulsed with 10 ng/mL EGF (Invitrogen) for 5 min. […] Actin structures were monitored continuously over a 16 hr period using confocal microscopy equipped with a growth chamber (37° C., humidified atmosphere and 5% CO2). […]

[1] = tested on: NF1-GRD expressing KR158 clones; assay: Cell morphology / actin confocal microscopy, NF1-GRD KR158; format: cell-based, mouse
Experimental: Constructs and Transfections: NF1-GRD retroviral constructs were obtained from Indiana University. Cells transduced with the NF1-GRD construct or PMSCV empty vector control as previously described (Hiatt et al., J. Biol. Chem., 2001, 276:7240-5) were maintained in 1 μg/mL puromycin (Sigma).
as §1, with “above.” for “above. Cells were serum starved in 0.5% FBS and SA or DMSO vehicle control for 18 hours, and then pulsed with 10 ng/mL EGF (Invitrogen) for 5 min.”

SMILES: CC(C)=CCC/C(C)=C/Cc1c(O)cc(/C=C/c2cc(O)c3c(c2)C[C@@H]2C(C)(C)[C@H](O)[C@H](O)C[C@@]2(C)O3)cc1O [SA, Schweinfurthin A]
- logGI50 (SNB-75): −7.82
- inhibition of proliferation (percent viability versus control) (MPNST K14553 cells): dose dependent inhibition of proliferation; also recorded: sensitive
- actin organization, phalloidin staining (primary astrocytes): no visible changes in actin organization
- actin structures [1]: did not change
